Measurements reported in patent publication US20260062422A1 (Halda Therapeutics OpCo, Inc., priority 2022, published 2026).

What was measured:
[1] = tested on: VCaP cells; experiment: Cellular growth inhibition assay for VCaP cells, CellTiter-Glo; type: cell-based, human; settings: 72 hours treatment, CellTiter-Glo 2.0
Procedure, shortened: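 GI50 values come from four-parameter curve fits of luminescence data normalized to a zero baseline. Compound, in medium with 0.5% DMSO, was added one day after plating and left for 72 h before CellTiter-Glo 2.0 addition.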

[2] = tested on: T47D cells; experiment: Cellular growth inhibition assay for T47D cells, CellTiter-Glo; type: cell-based, human; settings: 72 hours treatment, CellTiter-Glo 2.0 cell viability
Procedure, shortened: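 Cells are plated at 3000/well and allowed 24 h before treatment. Test compound in medium containing 0.5% DMSO is then added, with DMSO-only wells as negative control, and plates are incubated 72 h at 37 °C. ATP luminescence (CellTiter-Glo 2.0) is then fitted to four parameters to derive GI50.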

[3] = tested on: T-Rex 293 cell line SC3 cells having increased expression of androgen receptor protein due to exposure to doxycycline; experiment: Cellular growth inhibition, T-Rex 293 SC3 cells with doxycycline (androgen receptor induced), CellTiter-Glo; type: cell-based; settings: T-Rex 293 SC3 cells with 10 ng/mL doxycycline (increased androgen receptor expression)
Procedure, shortened: (§1)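 Growth inhibition was compared in a T-Rex 293 clone with and without doxycycline (10 ng/mL)-driven androgen receptor overexpression. Compounds were applied for 72 h in hormone-depleted serum, and GI50 came from four-parameter curves of CellTiter-Glo signal.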

[4] = tested on: T-Rex 293 cell line SC3 cells lacking increased expression of androgen receptor protein; experiment: Cellular growth inhibition, T-Rex 293 SC3 cells without doxycycline, CellTiter-Glo; type: cell-based; settings: T-Rex 293 SC3 cells not exposed to doxycycline, CellTiter-Glo 2.0
Procedure, shortened: as §1

| SMILES | GI50 ([1]; Homo sapiens, VCaP, 72 h) [nM] | GI50 ([2]; Homo sapiens, T47D, 72 h) [nM] | GI50 ([3]; 72 h) [nM] | GI50 ([4]; 72 h) [nM] | GI50 [1] [nM] | GI50 [2] [nM] | GI50 ([3]; 72 hours) [nM] | GI50 ([4]; 72 hours) [nM] |
| --- | --- | --- | --- | --- | --- | --- | --- | --- |
| Cc1sc2c(c1C)C(c1ccc(N(C)CC(=O)NCc3ncc(C(=O)N[C@H]4C(C)(C)[C@H](Oc5ccc(C#N)c(Cl)c5)C4(C)C)cn3)cc1)=N[C@@H](Cc1ncco1)c1nnc(C)n1-2 [Compound I-373] | > 3000 | > 3000 | > 3000 | > 3000 |  |  |  |  |
| Cc1sc2c(c1C)C(c1ccc(OC3CC4(C3)CC3(CCN(c5cnc(C(=O)N[C@H]6C(C)(C)[C@H](Oc7ccc(C#N)c(Cl)c7)C6(C)C)cn5)CC3)C4)cc1)=N[C@@H](C)c1nnc(C)n1-2 [Compound I-412] | > 3000 | < 500 | > 3000 | > 3000 |  |  |  |  |
| Cc1sc2c(c1C)C(c1ccc(C[C@H]3CC[C@H]4CN(c5ncc(C(=O)N[C@H]6C(C)(C)[C@H](Oc7ccc(C#N)c(Cl)c7)C6(C)C)cn5)CCN4C3)cc1)=NC(Cc1ncco1)c1nnc(C)n1-2 (some centres unmarked) [Compound I-324] | < 500 | < 500 | > 3000 | < 500 |  |  |  |  |
| Cc1sc2c(c1C)C(c1ccc(OC3CC4(CCN(c5ncc(C(=O)N[C@H]6C(C)(C)[C@H](Oc7ccc(C#N)c(Cl)c7)C6(C)C)cn5)CC4)C3)cc1)=NC(C(F)(F)F)c1nnc(C)n1-2 (some centres unmarked) [Compound I-601] |  |  |  |  | < 500 | > 3000 | > 3000 | > 3000 |
| Cc1sc2c(c1C)C(c1ccc(OCCC3CCN(c4ncc(C(=O)N[C@H]5C(C)(C)[C@H](Oc6ccc(C#N)c(Cl)c6)C5(C)C)cn4)CC3)cc1)=NC(Cc1ncco1)c1nnc(C)n1-2 (some centres unmarked) [Compound I-167] | < 500 | 500 to 1500 | < 500 | 500 to 1500 |  |  |  |  |
| Cc1sc2c(c1C)C(c1ccc(OC3CC4(CCN(c5ncc(C(=O)N[C@H]6C(C)(C)[C@H](Oc7ccc(C#N)c(Cl)c7)C6(C)C)cn5)CC4)C3)cc1)=N[C@@](C)(C(C)c1ncco1)c1nnc(C)n1-2 (some centres unmarked) [Compound I-262] | > 3000 | > 3000 | < 500 | > 3000 |  |  |  |  |
| COC[C@@H]1N=C(c2ccc(OC3CC4(CCCN(c5ncc(C(=O)N[C@H]6C(C)(C)[C@H](Oc7ccc(C#N)c(Cl)c7)C6(C)C)cn5)C4)C3)cc2)c2c(sc(C)c2C)-n2c(C)nnc21 [Compound I-568] | < 500 | < 500 | < 500 | > 3000 |  |  |  |  |
| Cc1sc2c(c1C)C(c1ccc(NCC3CCN(c4ncc(C(=O)N[C@H]5C(C)(C)[C@H](Oc6ccc(C#N)c(Cl)c6)C5(C)C)cn4)CC3)cc1)=N[C@@H](Cc1ncco1)c1nnc(C)n1-2 [Compound I-636] | < 500 | < 500 | < 500 | < 500 |  |  |  |  |
| Cc1sc2c(c1C)C(c1ccc([C@H]3CCCN(c4ncc(C(=O)N[C@H]5C(C)(C)[C@H](Oc6ccc(C#N)c(Cl)c6)C5(C)C)cn4)C3)cc1)=N[C@@H](Cc1ncco1)c1nnc(C)n1-2 [Compound I-302] | < 500 | < 500 | < 500 | 500 to 1500 |  |  |  |  |
| Cc1sc2c(c1C)C(c1ccc(C(C)(C)N3CC4(CCN(c5ncc(C(=O)N[C@H]6C(C)(C)[C@H](Oc7ccc(C#N)c(Cl)c7)C6(C)C)cn5)CC4)C3)cc1)=N[C@@H](Cc1ncco1)c1nnc(C)n1-2 [Compound I-438] |  |  |  | 1500 to 3000 | 500 to 1500 | > 3000 | < 500 |  |
| Cc1sc2c(c1C)C(c1ccc(CC3CC4(CCCN(c5ncc(C(=O)N[C@H]6C(C)(C)[C@H](Oc7ccc(C#N)c(Cl)c7)C6(C)C)cn5)C4)C3)cc1)=N[C@@H](C)c1nnc(C)n1-2 [Compound I-380] | < 500 | > 3000 | < 500 | > 3000 |  |  |  |  |
| Cc1sc2c(c1C)C(c1ccc(C(=O)N3CCC(C(=O)c4ncc(C(=O)N[C@H]5C(C)(C)[C@H](Oc6ccc(C#N)c(Cl)c6)C5(C)C)cn4)CC3)cc1)=N[C@@H](Cc1ncco1)c1nnc(C)n1-2 [Compound I-382] |  |  |  |  | > 3000 | > 3000 | < 500 | > 3000 |
| Cc1sc2c(c1C)C(c1ccc([C@H]3C[C@@H](C[C@@H]4CCCN(c5ncc(C(=O)N[C@H]6C(C)(C)[C@H](Oc7ccc(C#N)c(Cl)c7)C6(C)C)cn5)C4)C3)cc1)=N[C@@H](Cc1ncco1)c1nnc(C)n1-2 [Compound I-400] | > 3000 | > 3000 | > 3000 | > 3000 |  |  |  |  |
| Cc1sc2c(c1C)C(c1ccc(CN3CC[C@]4(CCCN(c5ncc(C(=O)N[C@H]6C(C)(C)[C@H](Oc7ccc(C#N)c(Cl)c7)C6(C)C)cn5)C4)C3)cc1)=N[C@@H](Cc1ncco1)c1nnc(C)n1-2 [Compound I-145] | < 500 | < 500 | < 500 | < 500 |  |  |  |  |
| Cc1sc2c(c1C)C(c1ccc(N3CCC[C@H](C(=O)NCc4ncc(C(=O)N[C@H]5C(C)(C)[C@H](Oc6ccc(C#N)c(Cl)c6)C5(C)C)cn4)C3)cc1)=N[C@@H](Cc1ncco1)c1nnc(C)n1-2 [Compound I-331] |  |  |  |  | < 500 | 500 to 1500 | < 500 | 500 to 1500 |
| Cc1sc2c(c1C)C(c1ccc(O[C@@H]3CCC4(CCN(c5ncc(C(=O)N[C@H]6C(C)(C)[C@H](Oc7ccc(C#N)c(Cl)c7)C6(C)C)cn5)CC4)C3)cc1)=N[C@@H](Cc1ncco1)c1nnc(C)n1-2 [Compound I-174] | 500 to 1500 | < 500 | < 500 | < 500 |  |  |  |  |
| Cc1sc2c(c1C)C(c1ccc(C(=O)N3CCN(CCc4ncc(C(=O)N[C@H]5C(C)(C)[C@H](Oc6ccc(C#N)c(Cl)c6)C5(C)C)cn4)CC3)cc1)=N[C@@H](Cc1ncco1)c1nnc(C)n1-2 [Compound I-333] | > 3000 | > 3000 | > 3000 | > 3000 |  |  |  |  |
| Cc1sc2c(c1C)C(c1ccc(O[C@@H]3CCOC34CN(c3ncc(C(=O)N[C@H]5C(C)(C)[C@H](Oc6ccc(C#N)c(Cl)c6)C5(C)C)cn3)C4)cc1)=N[C@@H](Cc1ncco1)c1nnc(C)n1-2 [Compound I-184] | < 500 | < 500 | < 500 | < 500 |  |  |  |  |
| Cc1sc2c(c1C)C(c1ccc(C3CC(C4CCN(c5ncc(C(=O)N[C@H]6C(C)(C)[C@H](Oc7ccc(C#N)c(Cl)c7)C6(C)C)cn5)CC4)C3)cc1)=NC(C)c1nnc(C)n1-2 (some centres unmarked) [Compound I-466] |  |  |  |  | > 3000 | < 500 | < 500 | > 3000 |
| Cc1sc2c(c1C)C(c1ccc(N3CC[C@@H](CNc4ncc(C(=O)N[C@H]5C(C)(C)[C@H](Oc6ccc(C#N)c(Cl)c6)C5(C)C)cn4)C3)cc1)=NC(Cc1ncco1)c1nnc(C)n1-2 (some centres unmarked) [Compound I-648] | < 500 | < 500 | < 500 | < 500 |  |  |  |  |
| Cc1sc2c(c1C)C(c1ccc(CC[C@H]3C[C@@]4(CCCN(c5ncc(C(=O)N[C@H]6C(C)(C)[C@H](Oc7ccc(C#N)c(Cl)c7)C6(C)C)cn5)C4)C3)cc1)=N[C@@H](Cc1ncco1)c1nnc(C)n1-2 [Compound I-240] | > 3000 | > 3000 | > 3000 | > 3000 |  |  |  |  |
| Cc1sc2c(c1C)C(c1ccc(N3CC4(CCN(c5ncc(C(=O)N[C@H]6C(C)(C)[C@H](Oc7ccc(C#N)c(Cl)c7)C6(C)C)cn5)CC4)C3)cc1)=NC(Cc1ncco1)c1nnc(C)n1-2 (some centres unmarked) [Compound I-207] | 500 to 1500 | 500 to 1500 |  |  |  |  | < 500 | > 3000 |
| Cc1sc2c(c1C)C(c1ccc(C(=O)N3CC[C@]4(CCCN(c5ncc(C(=O)N[C@H]6C(C)(C)[C@H](Oc7ccc(C#N)c(Cl)c7)C6(C)C)cn5)C4)C3)cc1)=N[C@@H](Cc1ncco1)c1nnc(C)n1-2 [Compound I-258] | > 3000 | 1500 to 3000 | < 500 | > 3000 |  |  |  |  |
